The source of these data is article PMC5218480 (PLoS ONE, 2017).

This assay deals with MV-4-11 cells. Put plainly: Gene expression microarray analysis (Affymetrix PrimeView) and GSEA. Set-up: RFU PODN (11730768_x_at) / Fold change /veh PODN (11730768_x_at) / RFU LINC00158 (11744669_a_at) / Fold change /veh LINC00158 (11744669_a_at) / RFU DUSP10 (11751237_a_at) / Fold change /veh DUSP10 (11751237_a_at) / RFU ID3 (11757404_x_at) / Fold change /veh ID3 (11757404_x_at) / RFU PLEKHG5 (11737974_s_at) / Fold change /veh PLEKHG5 (11737974_s_at) / RFU LRRC4B (11730491_at) / Fold change /veh LRRC4B (11730491_at) / RFU GIMAP4 (11747438_a_at) / Fold change /veh GIMAP4 (11747438_a_at) / RFU KRT8 (11758183_x_at) / Fold change /veh KRT8 (11758183_x_at) / RFU CNN1 (11734310_a_at) / Fold change /veh CNN1 (11734310_a_at) / RFU VPS37D (11726825_at) / Fold change /veh VPS37D (11726825_at) / RFU C10orf10 (11716522_x_at) / Fold change /veh C10orf10 (11716522_x_at) / RFU KIR2DL2 /// KIR2DL4 /// KIR2DL5A /// KIR2DL5B /// KIR2DS1 /// KIR2DS2 /// KIR2DS3 /// KIR2DS4 /// KIR3DL3 /// KIR3DL3 /// KIR3DS1 (11738374_at) / Fold change /veh KIR2DL2 /// KIR2DL4 /// KIR2DL5A /// KIR2DL5B /// KIR2DS1 /// KIR2DS2 /// KIR2DS3 /// KIR2DS4 /// KIR3DL3 /// KIR3DL3 /// KIR3DS1 (11738374_at) / RFU C1QL1 (11718748_at) / Fold change /veh C1QL1 (11718748_at) / RFU TMPRSS4 (11747572_a_at) / Fold change /veh TMPRSS4 (11747572_a_at) / RFU HAMP (11756126_x_at) / Fold change /veh HAMP (11756126_x_at) / RFU RNFT2 (11725882_a_at) / Fold change /veh RNFT2 (11725882_a_at) / RFU NR4A2 (11747474_a_at) / Fold change /veh NR4A2 (11747474_a_at) / RFU ABCC12 (11746883_a_at) / Fold change /veh ABCC12 (11746883_a_at) / RFU TMEM136 (11760407_x_at) / Fold change /veh TMEM136 (11760407_x_at) / RFU CLDN22 /// WWC2 (11732394_at) / Fold change /veh CLDN22 /// WWC2 (11732394_at) / RFU HLA-DPB1 (11760878_x_at) / Fold change /veh HLA-DPB1 (11760878_x_at) / RFU SPINT1 (11716480_a_at) / Fold change /veh SPINT1 (11716480_a_at) / RFU GAP43 (11754022_s_at) / Fold change /veh GAP43 (11754022_s_at) / RFU A4GNT (11735810_at) / Fold change /veh A4GNT (11735810_at) / RFU PRB3 (11715151_x_at) / Fold change /veh PRB3 (11715151_x_at) / RFU TUBB4B (11761932_at) / Fold change /veh TUBB4B (11761932_at) / RFU CAPN14 (11732068_a_at) / Fold change /veh CAPN14 (11732068_a_at) / RFU TMCC2 (11721928_a_at) / Fold change /veh TMCC2 (11721928_a_at) / RFU IRGQ (11745062_a_at) / Fold change /veh IRGQ (11745062_a_at) / RFU FAM174B (11720279_a_at) / Fold change /veh FAM174B (11720279_a_at) / RFU TMPRSS4 (11748680_a_at) / Fold change /veh TMPRSS4 (11748680_a_at) / RFU FAM212B (11763350_a_at) / Fold change /veh FAM212B (11763350_a_at) / RFU PLEKHG5 (11743358_a_at) / Fold change /veh PLEKHG5 (11743358_a_at) / RFU ZSCAN30 (11745921_a_at) / Fold change /veh ZSCAN30 (11745921_a_at) / RFU CMKLR1 (11741424_a_at) / Fold change /veh CMKLR1 (11741424_a_at) / RFU LOC101060620 /// MAPK8IP1 (11723275_at) / Fold change /veh LOC101060620 /// MAPK8IP1 (11723275_at) / RFU SPTSSB (11747773_x_at) / Fold change /veh SPTSSB (11747773_x_at) / RFU PRSS12 (11739890_at) / Fold change /veh PRSS12 (11739890_at) / RFU BIN1 (11741810_x_at) / Fold change /veh BIN1 (11741810_x_at) / RFU WNT11 (11732464_a_at) / Fold change /veh WNT11 (11732464_a_at) / RFU C10orf10 (11716521_a_at) / Fold change /veh C10orf10 (11716521_a_at) / RFU C5orf56 (11738089_at) / Fold change /veh C5orf56 (11738089_at) / RFU CYB561 (11721691_x_at) / Fold change /veh CYB561 (11721691_x_at) / RFU ANKRD19P (11752326_a_at) / Fold change /veh ANKRD19P (11752326_a_at) / RFU OR2T12 /// OR2T33 /// OR2T8 (11738714_s_at) / Fold change /veh OR2T12 /// OR2T33 /// OR2T8 (11738714_s_at) / RFU VCAN (11748164_a_at) / Fold change /veh VCAN (11748164_a_at) / RFU JSRP1 (11732532_at) / Fold change /veh JSRP1 (11732532_at) / RFU KRTAP10-11 (11738290_x_at) / Fold change /veh KRTAP10-11 (11738290_x_at) / RFU MYO3A (11730013_a_at) / Fold change /veh MYO3A (11730013_a_at) / RFU EBF3 (11725865_a_at) / Fold change /veh EBF3 (11725865_a_at) / RFU CAMK2N1 (11719241_x_at) / Fold change /veh CAMK2N1 (11719241_x_at) / RFU C5orf56 (11738088_a_at) / Fold change /veh C5orf56 (11738088_a_at) / RFU OLFML3 (11715873_a_at) / Fold change /veh OLFML3 (11715873_a_at) / RFU LOC100653217 /// NTM (11731650_a_at) / Fold change /veh LOC100653217 /// NTM (11731650_a_at) / RFU MAPK11 (11762145_a_at) / Fold change /veh MAPK11 (11762145_a_at) / RFU FIZ1 (11724087_x_at) / Fold change /veh FIZ1 (11724087_x_at) / RFU OASL (11726364_x_at) / Fold change /veh OASL (11726364_x_at) / RFU SOX15 (11748057_x_at) / Fold change /veh SOX15 (11748057_x_at) / RFU CD79A (11719716_a_at) / Fold change /veh CD79A (11719716_a_at) / RFU HIST1H1D (11736915_at) / Fold change /veh HIST1H1D (11736915_at) / RFU CASKIN2 (11723855_a_at) / Fold change /veh CASKIN2 (11723855_a_at) / RFU LOC730098 (11760151_x_at) / Fold change /veh LOC730098 (11760151_x_at) / RFU OR4N2 (11742367_at) / Fold change /veh OR4N2 (11742367_at) / RFU PRRT2 (11749266_a_at) / Fold change /veh PRRT2 (11749266_a_at) / RFU SNX32 (11753110_a_at) / Fold change /veh SNX32 (11753110_a_at) / RFU CDHR5 (11726645_a_at) / Fold change /veh CDHR5 (11726645_a_at) / RFU RCAN1 (11760418_a_at) / Fold change /veh RCAN1 (11760418_a_at) / RFU FAM167A (11723789_a_at) / Fold change /veh FAM167A (11723789_a_at) / RFU FAM26E (11764081_at) / Fold change /veh FAM26E (11764081_at) / RFU ISYNA1 (11749810_s_at) / Fold change /veh ISYNA1 (11749810_s_at) / RFU ACY1 (11761880_at) / Fold change /veh ACY1 (11761880_at) / RFU 11764098_at / Fold change /veh 11764098_at / RFU SAMD14 (11745864_x_at) / Fold change /veh SAMD14 (11745864_x_at) / RFU NPB (11741838_a_at) / Fold change /veh NPB (11741838_a_at) / RFU TMPRSS6 (11731388_a_at) / Fold change /veh TMPRSS6 (11731388_a_at) / RFU KRTAP10-2 (11738614_at) / Fold change /veh KRTAP10-2 (11738614_at) / RFU ARHGAP8 /// PRR5-ARHGAP8 (11727945_x_at) / Fold change /veh ARHGAP8 /// PRR5-ARHGAP8 (11727945_x_at) / RFU KRTAP5-7 /// NADSYN1 (11734609_at) / Fold change /veh KRTAP5-7 /// NADSYN1 (11734609_at) / RFU RASL12 (11751679_a_at) / Fold change /veh RASL12 (11751679_a_at) / RFU CDKN2B (11736163_a_at) / Fold change /veh CDKN2B (11736163_a_at) / RFU PRF1 (11729649_at) / Fold change /veh PRF1 (11729649_at) / RFU, ZNF638 /// ZNF638-IT1 / Fold change vs veh, ZNF638 /// ZNF638-IT1 / RFU, PANK3 / Fold change vs veh, PANK3 / RFU, SH3YL1 / Fold change vs veh, SH3YL1 / RFU, ZEB2 / Fold change vs veh, ZEB2 / RFU, NRIP1 / Fold change vs veh, NRIP1 / RFU, PTTG1IP / Fold change vs veh, PTTG1IP / RFU, CAPN2 / Fold change vs veh, CAPN2 / RFU, MED14 / Fold change vs veh, MED14 / RFU, SNORA58 / Fold change vs veh, SNORA58 / RFU, C1orf63 / Fold change vs veh, C1orf63 / RFU, LRRFIP1 / Fold change vs veh, LRRFIP1 / RFU, NDUFAF7 / Fold change vs veh, NDUFAF7 / RFU, SLC12A2 / Fold change vs veh, SLC12A2 / RFU, IBTK / Fold change vs veh, IBTK / RFU, ESF1 / Fold change vs veh, ESF1 / Fold change vs veh, TMEM50B / RFU, TAOK1 / Fold change vs veh, TAOK1 / RFU, ACBD3 / Fold change vs veh, ACBD3 / RFU, TMA16 / Fold change vs veh, TMA16 / RFU, RWDD3 / Fold change vs veh, RWDD3 / RFU, BCAT1 / Fold change vs veh, BCAT1 / RFU, EDEM3 / Fold change vs veh, EDEM3 / RFU, TMEM33 / Fold change vs veh, TMEM33 / RFU, WDR75 / Fold change vs veh, WDR75 / RFU, AHCTF1 / Fold change vs veh, AHCTF1 / RFU, TFRC / Fold change vs veh, TFRC / RFU, ZDHHC17 / Fold change vs veh, ZDHHC17 / RFU, NOM1 / Fold change vs veh, NOM1 / RFU, ARL8B / Fold change vs veh, ARL8B / RFU, ZBTB11 / Fold change vs veh, ZBTB11 / RFU, TAMM41 / Fold change vs veh, TAMM41 / RFU, KIAA1704 /// LOC100996395 / Fold change vs veh, KIAA1704 /// LOC100996395 / RFU, ING1 / Fold change vs veh, ING1 / RFU, TRMT61B / Fold change vs veh, TRMT61B / RFU, FUBP3 / Fold change vs veh, FUBP3 / RFU, TP53 / Fold change vs veh, TP53 / RFU, TNKS2 / Fold change vs veh, TNKS2 / RFU, ZFP14 / Fold change vs veh, ZFP14 / RFU, ACTR2 / Fold change vs veh, ACTR2 / RFU, PPP3R1 / Fold change vs veh, PPP3R1 / RFU, PIK3R1 / Fold change vs veh, PIK3R1 / RFU, HNRNPA1 / Fold change vs veh, HNRNPA1 / RFU, RNF170 / Fold change vs veh, RNF170 / RFU, ZNF28 / Fold change vs veh, ZNF28 / RFU, RNGTT / Fold change vs veh, RNGTT / RFU, OGT / Fold change vs veh, OGT / RFU, BRD1 / Fold change vs veh, BRD1 / RFU, MARS / Fold change vs veh, MARS / RFU, ZNF655 / Fold change vs veh, ZNF655 / RFU, FAHD1 / Fold change vs veh, FAHD1 / RFU, BDP1 / Fold change vs veh, BDP1 / RFU, LRRCC1 / Fold change vs veh, LRRCC1 / RFU, ARID1A / Fold change vs veh, ARID1A / RFU, ZNF146 / Fold change vs veh, ZNF146 / RFU, ZNF330 / Fold change vs veh, ZNF330 / RFU, GPN3 / Fold change vs veh, GPN3 / RFU, C9orf123 / Fold change vs veh, C9orf123 / RFU, N4BP2L2 / Fold change vs veh, N4BP2L2 / RFU, ARFIP1 / Fold change vs veh, ARFIP1 / RFU, FAM179B / Fold change vs veh, FAM179B / RFU, BCL10 / Fold change vs veh, BCL10 / RFU, UHRF1BP1L / Fold change vs veh, UHRF1BP1L / RFU, BET1 / Fold change vs veh, BET1 / RFU, CNOT2 / Fold change vs veh, CNOT2 / RFU, ZNF268 / Fold change vs veh, ZNF268 / Fold change vs veh, ZNF507 / RFU, DGCR2 / Fold change vs veh, DGCR2 / RFU, WDSUB1 / Fold change vs veh, WDSUB1 / Fold change vs veh, HSP90B1 /// MIR3652 / RFU, ADSS / Fold change vs veh, ADSS / RFU, GK / Fold change vs veh, GK / RFU, ZNF148 / Fold change vs veh, ZNF148 / RFU, TAF9 / Fold change vs veh, TAF9 / RFU, SLC1A5 / Fold change vs veh, SLC1A5 / RFU, SLMO2 / Fold change vs veh, SLMO2 / RFU, ABCC4 / Fold change vs veh, ABCC4 / RFU, LOC101060439 /// RAP1B / Fold change vs veh, LOC101060439 /// RAP1B / RFU, RFX7 / Fold change vs veh, RFX7 / RFU, GTPBP10 / Fold change vs veh, GTPBP10 / RFU, CNEP1R1 / Fold change vs veh, CNEP1R1 / RFU, BIVM-ERCC5 /// ERCC5 / Fold change vs veh, BIVM-ERCC5 /// ERCC5 / RFU, ILF3 / Fold change vs veh, ILF3 / RFU 11762660_at / Fold change /veh 11762660_at / RFU VCAN (11757783_s_at) / Fold change /veh VCAN (11757783_s_at) / RFU DDX43 (11728927_at) / Fold change /veh DDX43 (11728927_at) / RFU KRT8 (11758188_x_at) / Fold change /veh KRT8 (11758188_x_at) / RFU NKD1 (11759106_at) / Fold change /veh NKD1 (11759106_at) / RFU SRD5A1 (11742802_a_at) / Fold change /veh SRD5A1 (11742802_a_at) / RFU TPSAB1 /// TPSB2 (11721975_s_at) / Fold change /veh TPSAB1 /// TPSB2 (11721975_s_at) / RFU GSTM3 (11746129_a_at) / Fold change /veh GSTM3 (11746129_a_at) / RFU IL23R (11737362_x_at) / Fold change /veh IL23R (11737362_x_at) / RFU TMEM51 (11727254_a_at) / Fold change /veh TMEM51 (11727254_a_at) / RFU PIWIL2 (11732686_x_at) / Fold change /veh PIWIL2 (11732686_x_at) / RFU ORM1 (11744905_x_at) / Fold change /veh ORM1 (11744905_x_at) / RFU CCDC152 (11743942_at) / Fold change /veh CCDC152 (11743942_at) / RFU ECM1 (11717891_a_at) / Fold change /veh ECM1 (11717891_a_at) / RFU IL23R (11748794_a_at) / Fold change /veh IL23R (11748794_a_at) / RFU TNFAIP8L3 (11732012_x_at) / Fold change /veh TNFAIP8L3 (11732012_x_at) / RFU MBOAT4 (11741988_at) / Fold change /veh MBOAT4 (11741988_at) / RFU 11764193_at / Fold change /veh 11764193_at / RFU TMEM53 (11763286_at) / Fold change /veh TMEM53 (11763286_at) / RFU MAGEB2 (11727129_at) / Fold change /veh MAGEB2 (11727129_at) / RFU TMEM200A (11744735_a_at) / Fold change /veh TMEM200A (11744735_a_at) / RFU CCDC152 (11751479_a_at) / Fold change /veh CCDC152 (11751479_a_at) / RFU FAM211A (11726209_a_at) / Fold change /veh FAM211A (11726209_a_at) / RFU RGS16 (11746705_a_at) / Fold change /veh RGS16 (11746705_a_at) / RFU VCAN (11755009_s_at) / Fold change /veh VCAN (11755009_s_at) / RFU RHOB (11743442_s_at) / Fold change /veh RHOB (11743442_s_at) / RFU RGS16 (11720943_a_at) / Fold change /veh RGS16 (11720943_a_at) / RFU RGS16 (11720944_at) / Fold change /veh RGS16 (11720944_at) / RFU, VPS4B / Fold change vs veh, VPS4B / RFU, CREB1 / Fold change vs veh, CREB1 / RFU, DNAJC13 / Fold change vs veh, DNAJC13 / RFU, GNAQ / Fold change vs veh, GNAQ / RFU, CDK5R1 / Fold change vs veh, CDK5R1 / RFU, ZRANB3 / Fold change vs veh, ZRANB3 / RFU, CUL4A / Fold change vs veh, CUL4A / RFU, CCNY / Fold change vs veh, CCNY / RFU, UFL1 / Fold change vs veh, UFL1 / RFU, COG3 / Fold change vs veh, COG3 / RFU, DIAPH2 / Fold change vs veh, DIAPH2 / RFU, SKA2 / Fold change vs veh, SKA2 / RFU, AFF3 / Fold change vs veh, AFF3 / RFU, LMF1 / Fold change vs veh, LMF1 / RFU, IPO11 / Fold change vs veh, IPO11 / RFU, DFFB / Fold change vs veh, DFFB / RFU, FOXP1 / Fold change vs veh, FOXP1 / RFU, CARD8 / Fold change vs veh, CARD8 / RFU, STRN3 / Fold change vs veh, STRN3 / RFU, ADK / Fold change vs veh, ADK / RFU, RASSF2 / Fold change vs veh, RASSF2 / RFU, WIPF1 / Fold change vs veh, WIPF1 / RFU, LARP1B / Fold change vs veh, LARP1B / RFU, RASA1 / Fold change vs veh, RASA1 / RFU, RB1 / Fold change vs veh, RB1 / RFU, PPFIA1 / Fold change vs veh, PPFIA1 / RFU, MAT2A / Fold change vs veh, MAT2A / RFU, CCT5 / Fold change vs veh, CCT5 / RFU, WDR92 / Fold change vs veh, WDR92 / RFU, CUX1 / Fold change vs veh, CUX1 / RFU, TTC7A / Fold change vs veh, TTC7A / RFU, TMEM135 / Fold change vs veh, TMEM135 / RFU, DEPTOR / Fold change vs veh, DEPTOR / RFU, CPM / Fold change vs veh, CPM / RFU, DNAJB6 / Fold change vs veh, DNAJB6 / RFU, CACNA2D3 / Fold change vs veh, CACNA2D3 / RFU, DTX4 / Fold change vs veh, DTX4 / RFU, TFCP2 / Fold change vs veh, TFCP2 / RFU, GMCL1 /// GMCL1P1 / Fold change vs veh, GMCL1 /// GMCL1P1 / RFU, AEBP2 / Fold change vs veh, AEBP2 / RFU, SNHG1 /// SNORD22 /// SNORD25 /// SNORD26 /// SNORD27 /// SNORD28 /// SNORD29 /// SNORD31 / Fold change vs veh, SNHG1 /// SNORD22 /// SNORD25 /// SNORD26 /// SNORD27 /// SNORD28 /// SNORD29 /// SNORD31 / Fold change (Aza/veh), C12orf56 (ProbeSet 11735607_a_at) / Fold change (ACY-1035/veh), C12orf56 (ProbeSet 11735607_a_at) / Fold change (Aza/veh), FGFR1OP (ProbeSet 11751329_s_at) / Fold change (ACY-1035/veh), FGFR1OP (ProbeSet 11751329_s_at) / Fold change (Aza/veh), VPS36 (ProbeSet 11739960_a_at) / Fold change (ACY-1035/veh), VPS36 (ProbeSet 11739960_a_at) / RFU SYPL1 (11715823_x_at) / Fold change /veh SYPL1 (11715823_x_at) / RFU IGFBP7 (11715501_s_at) / Fold change /veh IGFBP7 (11715501_s_at) / RFU REEP3 (11722064_at) / Fold change /veh REEP3 (11722064_at) / RFU IGLL1 (11728026_x_at) / Fold change /veh IGLL1 (11728026_x_at): dose or concentration left out as unconfirmed. The following applies: gene C12orf56; Azacitidine vs DMSO; LIST F. The assay is classed as cell-based, human.

With `Nc1ncn([C@@H]2O[C@H](CO)[C@@H](O)[C@H]2O)c(=O)n1` [azacitidine], the “Fold change (Aza/veh), C12orf56 (ProbeSet 11735607_a_at)” value is given as 1.01.
